Assay results taken from US7723289B2, “PIF tetrapeptides” (BioIncept, LLC, priority 2003, dated 2010).
Read-outs that look alike come from different tables or passages of the source.

Tests used:
human lymphocytes = system: human lymphocytes
Protocol: Human PBMC were isolated and cultured for 2-4 days in AIM-V medium containing 0 to 200 nM of sPIF-115 (SEQ ID NO:13) or scrPIF-115 (SEQ ID NO:5). The following proliferation-activating agents were used: anti-CD3 antibody (10 μg/ml solution) bound on the plate wells in the presence or absence of IL-2 at 10 μg/ml; phytohemmaglutinin (PHA) at 4 μg/ml. The effects of sPIF-115 (SEQ ID NO:13) or scrPIF-115 (SEQ ID NO:5) peptides were also determined by the mixed lymphocyte reaction (MLR) after 3 days in heterologous cultures of PBMC with cells previously treated with mitomycin C (100 μg/ml for 4 h). Cell proliferation was determined by tritiated thymidine incorporation (16 h) of 72-h culture. Cytokine release (IL-4, IL-10, IFN-γ and TNF-α) into culture supernatants was determined at 72 h of culture by ELISA (R&D System).

PBMC [1] = assay: FITC-labeled PIF binding to PBMC subpopulations (flow cytometry); set-up: species or system human
Protocol: Expression of PIF-1(15) (SEQ ID NO:1), receptor following PHA induced PBMC proliferation CD-4 T cells; CD-8 T cells; NK cell and B cells (unstimulated-top); (PHA stimulated-bottom). Flow cytometry analysis of PBMC following exposure to FITC sPIF-1(15) (SEQ ID NO:13) % expression was determined in PBMC subtypes before and after exposure to 1 ug/ml PHA for 24 hours.
Human PBMC were isolated by the Ficoll method. FITC-labeled nPIF-115 (SEQ ID NO: 1) and (FITC)-labeled scrPIF-1 (SEQ ID NO:5) and match-size irrelevant peptide (FITC)-labeled negative controls negPIF-1(15) (SEQ ID NO:11), were dissolved in PBS at concentrations ranging from 0.75 to 48.19 μM, and were incubated with 500,000 lymphocytes for 1 h at room temperature. The cells were washed 6 times with PBS and resuspended in 500 μl of the same buffer. T-cells and monocytes identification was performed in independent experiments by incubation with anti-CD3 and anti-CD14 antibody-phycoerithryn (PE) labeled. nPIF-115 (SEQ ID NO: 1) binding to PBMC was determined by flow cytometry. In addition, rosettes formed by T cell-platelets were detected by flow cytometry using anti-CD3 antibody-PE and anti-CD41a antibody-FITC (all antibodies were from Pharmingen Inc.).
Using flow cytometry fluoroscein-labeled sPIF-115 (SEQ ID NO: 13) binding to immune cells was examined on resting PBMC.

CD3 = CD3 expression in PBMC (flow cytometry, MAbCD3-PE); type: cell-based; details: PBMC exposed 3 days, 2-200 nM
Protocol: Fluorescent PIF peptides bind to immune cell membranes following activation. […] CD69 is expressed during activation of lymphocytes and monocytes, and is a marker of NK cells activation. CD25 is the receptor for IL-2, and a known activation marker as well. […] The expression of CD3 in PBMC was examined following exposure for 3 days to sPIF-1(15) (SEQ ID NO:13) (2-200 nM) using 20 ul MAbCD3-PE (BD).

PBMC [2] = assay: PIF-1 effects on cytokine expression in patient and control PBMC (Table 7); type: cell-based, human; details: for TH1/TH2 change in parentheses: PHA + PIF-115 + vs PHA + alone; for IL-10 / TH1/TH2 / TNFα: PHA +, PIF-115 +
[3] = system: THP1 a monocyte cell line; details: 1-100 nM, no mitogen
Excerpt: The effect of PIF-1 was examined on THP1 a monocyte cell line (Dr Sharma Brown Univ).

β-3 integrin = β-3 integrin expression by human endometrial epithelial cells (flow cytometry, immunocytochemistry); type: cell-based
Protocol: Human endometrial tissues were digested and stromal and epithelial cells (hEEC) isolated and cultured with a fetal bovine serum (FBS)-enriched medium until confluent layers were obtained. After that the cells were cultured for two more days in a FBS free-medium followed by a further 2-day culture in the same medium containing PIF peptides (1-500 nM).
In addition, to compare the recovery of β-3 integrin expression with PIF effects described after cultured hEEC in a free-fetal bovine serum (FBS) medium some cells were cultured again in FBS-medium. […] PIF binding to epithelial cells was also examined. Binding was examined using MaBCD2 staining.

[4] = PBMC within 24 hrs of PHA activation

For MVRIKPGSANKPSDD [sPIF-1(15)], which “concentration at which lower rates of lymphocyte proliferation was found” value (“concentration at which lower rates” for short) (human lymphocytes; MLR) is on record?
Its value is 1 nM.

And the “concentration at which lower rates” value (human lymphocytes; PHA stimulated)?
The value was 250 nM.

What about the “concentration at which lower rates” value (human lymphocytes; anti-CD3 antibody stimulated) of the same sequence?
Its value is 62.5 nM.

And the “fluorescence-labeled peptide binding to human lymphocytes” value (PBMC [1]; FIG. 1(A))?
The value was “dose dependent manner”.

And the “B cells positive for fluorescent PIF binding” value (PBMC [1]; [4])?
Its value is over 90%.

And the “T lymphocytes positive for fluorescent PIF binding” value (PBMC [1]; [4])?
Its value is 60-80%.

What about the binding to platelets (PBMC [1]; basal state) of the same sequence?
The binding to platelets was “not to platelets”.

And the binding to monocytes (PBMC [1]; basal state, unstimulated PBMC)?
The binding to monocytes was “binds all monocytes”.

What about the “binding to NK cells” value (PBMC [1]; even after several days in culture with PHA) of the same sequence?
Its value is “did not appear to bind”.

What about the “binding site expression on resting T cells (CD4+, CD8+), B cells (CD19+), NK cells (CD56)” value (PBMC [1]; resting PBMC) of the same sequence?
Its value is “very low”.

What about the “increase in CD3 receptor expression” value (CD3) of the same sequence?
Its value is 215-420%.

What about the “TH1/TH2 change in parentheses” value (PBMC [2]; control) of the same sequence?
The value was −19%.

And the IL-10 (PBMC [2]; control)?
Its IL-10 is 28.18 % of total PBMC in scatter gate.

And the TH1/TH2 (PBMC [2]; control)?
Its TH1/TH2 is 0.55.

What about the TNFα (PBMC [2]; control) of the same sequence?
The TNFα was 15.46 % of total PBMC in scatter gate.

What about the “TH1/TH2 change in parentheses” value (PBMC [2]; patient) of the same sequence?
Its value is “+32%”.

And the IL-10 (PBMC [2]; patient)?
The IL-10 was 24.32 % of total PBMC in scatter gate.

What about the TH1/TH2 (PBMC [2]; patient) of the same sequence?
Its TH1/TH2 is 0.75.

What about the TNFα (PBMC [2]; patient) of the same sequence?
The TNFα was 18.32 % of total PBMC in scatter gate.

What about the IL10 secretion [3] of the same sequence?
Its IL10 secretion is “dose dependent increase”.

What about the “increase in the expression of β-3-epithelial integrin” value (β-3 integrin; hEEC, 2-day culture, 1-500 nM) of the same sequence?
The value was “up to a four-fold increase”.

What about the “interaction with cultures of human endometrial stromal cells” value (β-3 integrin; stromal cells) of the same sequence?
The value was “did not interact”.
